The target in test [1] is T1, BRD4 BD2 (Homo sapiens, UniProt O60885).
T1 construct: BD2 TE; expressed in transfected cells
Nature of the test: Target Engagement Intracellular BET BRD Assay (NanoBRET). It is filed as cell-based. The settings on record: read-out: BRD4 BD2 TE IC50. The method, then: 3× Complete Substrate plus Inhibitor Solution in Assay Medium (Opti-MEM® I Reduced Serum Medium, no phenol red, and no serum) was prepared just before measuring BRET. This solution consisted of a 1:166 dilution of NanoBRET™ Nano-Glo® Substrate plus a 1:500 dilution of Extracellular NanoLuc® Inhibitor in Assay Medium. For a 96-well plate, 30 μl of NanoBRET™ Nano-Glo® Substrate, 10 μl of Extracellular NanoLuc® Inhibitor and 4,960 μl of Assay Medium were mixed to produce 5 ml of 3× Complete Substrate plus Inhibitor Solution, followed with gently mixing by inversion 5-10 times in a conical tube. (The final concentration of Extracellular NanoLuc® Inhibitor in the 3× solution was 60 μM, for a working concentration of 20 μM. Use 3× Complete Substrate plus Inhibitor Solution within 2 hours. Discard any remaining solution).
50 μl of 3× Complete Substrate plus Inhibitor Solution were added to each well of the 96-well plate, followed by incubation for 2-3 minutes at room temperature. Donor emission wavelength (e.g., 450 nm) and acceptor emission wavelength (e.g., 610 nm) were measured by using the GloMax® Discover System or other NanoBRET™ Assay-compatible luminometer (it is recommended measuring BRET within 10 minutes after adding NanoBRET™ Nano-Glo™ Substrate plus Extracellular NanoLuc® Inhibitor Solution. However, BRET can be measured for up to 2 hours, but there will be some loss of luminescence signal).
To generate raw BRET ratio values, the acceptor emission value (e.g., 610 nm) was divided by the donor emission value (e.g., 450 nm) for each sample [to correct for background, the BRET ratio was substracted in the absence of tracer (average of no-tracer control samples) from the BRET ratio of each sample]. Raw BRET units were converted to milliBRET units (mBU) by multiplying each raw BRET value by 1,000. NanoBRET™ ratio equation, including optional background correction is shown below:
BRET Ratio=[(Acceptorsample÷Donorsample)−(Acceptorno-tracer control÷Donorno-tracer control)]×1,000.

Test [2] has as its system MCP-1. Nature of the test: PBMC MCP-1 HTRF Assay. Type of test: cell-based. To be noted: LPS 200 ng/mL, 24 hours. The protocol: The cryopreserved PBMC cells were thawed in a 37° C. water bath immediately after taking out from liquid nitrogen storage. A sterile pipette was used to transfer the content to sterile […] centrifuge tube containing […] of complete growth medium (Gibico 1640) and centrifuge at 300×g for 10 min. Supernatant was discarded, and cell pellet was resuspended in 10 mL of complete growth media in a sterile 15 mL tube. The cells were rested for 1 h at 37° C. (1×10^6 cells/mL). The cells were spinned down at 300×g for 10 minutes after 1 h. Supernatant was discard, and cell pellet was resuspended in complete growth medium, the cells number and viability were measured by AO/PI staining. In a 384-well white plate, PBMCs at 25 k cells/well (15 μl per well) were seeded with Gibico 1640 medium. The compound stock was serial diluted into […] by 3-fold dilution. 20 nL DMSO, 20 nL test compounds DMSO stock (serial diluted) were transferred in assay plate by using ECHO550, incubate for 30 min at 37° C., 5% CO2. LPS was diluted by Gibico 1640 medium.add 5 μl per well. The final concentration (200 ng/mL) was incubated for 24 hours at 37° C. with 5% CO2.
For MCP-1 HTRF, 2.5 μl/well MCP-1 donor antibody and 2.5 μl/well MCP-1 acceptor antibody were added into 384 well plate, following by centrifuging at 190×g for 1 min and incubating at room temperature for 2 h. The plate was read on the Envision.

The structures appear in SMILES notation.

For the compound `Cc1cc(-c2ccc(-n3ccn(C)c3=O)c(Cl)c2)c(O)c(-c2cc(F)cc(N3CCN(C(C)(C)C)CC3)c2)n1` [Example I-12, 1-(4-(2-(3-(4-(tert-butyl)piperazin-1-yl)-5-fluorophenyl)-3-hydroxy-6-methylpyridin-4-yl)-2-chlorophenyl)-3-methyl-1,3-dihydro-2H-imidazol-2-one], the IC50 in test [1] worked out at 4.31 nM; in test [2] it was 4.72 nM.
As to `COc1ncc(-c2nc(C)cc(-c3ccc(-n4ccn(C)c4=O)c(Cl)c3)c2O)cc1N1CCN(C(C)(C)C)CC1` [Example I-3, 1-(4-(5′-(4-(tert-butyl)piperazin-1-yl)-3-hydroxy-6′-methoxy-6-methyl-[2,3′-bipyridin]-4-yl)-2-chlorophenyl)-3-methyl-1,3-dihydro-2H-imidazol-2-one], the IC50 in test [1] came to 4.5 nM; in test [2], 4.4 nM.
Consider `Cc1cc(-c2ccc(-n3ccn(C)c3=O)c(Cl)c2)c(O)c(-c2ccc(Cl)c(N3CCN(C(C)(C)C)CC3)c2)n1` [Example I-11, 1-(4-(2-(3-(4-(tert-butyl)piperazin-1-yl)-4-chlorophenyl)-3-hydroxy-6-methylpyridin-4-yl)-2-chlorophenyl)-3-methyl-1,3-dihydro-2H-imidazol-2-one], for which the results for the IC50 in test [1] and in test [2] were 4.22 nM and 6.34 nM, respectively.
As to `Cc1cc(-c2ccc(-n3ccn(C)c3=O)c(F)c2)c(O)c(-c2cccc(N3CCN(C(C)(C)C)CC3)c2)n1` [Example I-8, 1-(4-(2-(3-(4-(tert-butyl)piperazin-1-yl)phenyl)-3-hydroxy-6-methylpyridin-4-yl)-2-fluorophenyl)-3-methyl-1,3-dihydro-2H-imidazol-2-one], the IC50 was determined as 13 nM in test [1] and 5.39 nM in test [2].
For `Cc1cc(-c2ccc(-n3ccn(C)c3=O)c(Cl)c2)c(O)c(-c2ccc(F)c(N3CCN(C(C)(C)C)CC3)c2)n1` [Example I-7, 1-(4-(2-(3-(4-(tert-butyl)piperazin-1-yl)-4-fluorophenyl)-3-hydroxy-6-methylpyridin-4-yl)-2-chlorophenyl)-3-methyl-1,3-dihydro-2H-imidazol-2-one] the same measures were 11 nM and 1.79 nM.
For `Cc1cc(-c2ccc(-n3ccn(C)c3=O)c(C)c2)c(O)c(-c2cccc(N3CCN(C(C)(C)C)CC3)c2)n1` [Example I-10, 1-(4-(2-(3-(4-(tert-butyl)piperazin-1-yl)phenyl)-3-hydroxy-6-methylpyridin-4-yl)-2-methylphenyl)-3-methyl-1,3-dihydro-2H-imidazol-2-one] the same measures were 7.59 nM and 1.46 nM.
For `Cc1cc(-c2ccc(-n3ccn(C)c3=O)c(Cl)c2)c(O)c(-c2cc(N3CCN(C(C)(C)C)CC3)n(C)c(=O)c2)n1` [Example I-9, 6′-(4-(tert-butyl)piperazin-1-yl)-4-(3-chloro-4-(3-methyl-2-oxo-2,3-dihydro-1H-imidazol-1-yl)phenyl)-3-hydroxy-1′,6-dimethyl-[2,4′-bipyridin]-2′(1′H)-one] the same measures were 87.2 nM and 66.3 nM.
For the compound `Cn1ccn(-c2ccc(-c3ccnc(-c4cccc(N5CCN(C(C)(C)C)CC5)c4)c3O)cc2Cl)c1=O` [Example I-14, 1-(4-(2-(3-(4-(tert-butyl)piperazin-1-yl)phenyl)-3-hydroxypyridin-4-yl)-2-chlorophenyl)-3-methyl-1,3-dihydro-2H-imidazol-2-one], the IC50 in test [1] turned out to be 68.5 nM; in test [2] it was 21.1 nM.
The matching figures for `Cc1cc(-c2ccc(-n3ccn(C)c3=O)c(Cl)c2)c(O)c(-c2cc(Cl)cc(N3CCN(C(C)(C)C)CC3)c2)n1` [Example I-6, 1-(4-(2-(3-(4-(tert-butyl)piperazin-1-yl)-5-chlorophenyl)-3-hydroxy-6-methylpyridin-4-yl)-2-chlorophenyl)-3-methyl-1,3-dihydro-2H-imidazol-2-one]: 9.11 nM and 2.25 nM.
Take `COc1ncc(-c2cc(F)cc(-c3ccc(-n4ccn(C)c4=O)c(Cl)c3)c2O)cc1N1CCN(C(C)(C)C)CC1` [Example I-15, 1-(3′-(5-(4-(tert-butyl)piperazin-1-yl)-6-methoxypyridin-3-yl)-3-chloro-5′-fluoro-2′-hydroxy-[1,1′-biphenyl]-4-yl)-3-methyl-1,3-dihydro-2H-imidazol-2-one]: the values for the IC50 in test [1] and in test [2] were 0.152 nM and 1.09 nM, respectively.
In the case of `Cc1cc(-c2ccc(-n3ccn(C)c3=O)c(Cl)c2)c(O)c(-c2cccc(N3CCN(C(C)(C)C)CC3)c2)n1` [Example I-2, 1-(4-(2-(3-(4-(tert-butyl)piperazin-1-yl)phenyl)-3-hydroxy-6-methylpyridin-4-yl)-2-chlorophenyl)-3-methyl-1,3-dihydro-2H-imidazol-2-one], the IC50 in test [1] stood at 0.152 nM; in test [2], 1.22 nM.
For `[2H]C([2H])([2H])n1ccn(-c2ccc(-c3cc(C)nc(-c4cccc(N5CCN(C(C)(C)C)CC5)c4)c3O)cc2Cl)c1=O` [Example I-4, 1-(4-(2-(3-(4-(tert-butyl)piperazin-1-yl)phenyl)-3-hydroxy-6-methylpyridin-4-yl)-2-chlorophenyl)-3-(methyl-d3)-1,3-dihydro-2H-imidazol-2-one] the same measures were 10.2 nM and 1.72 nM.
For `Cn1ccn(-c2ccc(-c3cc(F)nc(-c4cccc(N5CCN(C(C)(C)C)CC5)c4)c3O)cc2Cl)c1=O` [Example I-13, 1-(4-(2-(3-(4-(tert-butyl)piperazin-1-yl)phenyl)-6-fluoro-3-hydroxypyridin-4-yl)-2-chlorophenyl)-3-methyl-1,3-dihydro-2H-imidazol-2-one] the same measures were 83.6 nM and 16.7 nM.
For `Cc1cc(-c2ccc(-n3ccn(C)c3=O)c(Cl)c2)c(N)c(-c2cccc(N3CCN(C(C)(C)C)CC3)c2)n1` [Example I-5, 1-(4-(3-amino-2-(3-(4-(tert-butyl)piperazin-1-yl)phenyl)-6-methylpyridin-4-yl)-2-chlorophenyl)-3-methyl-1,3-dihydro-2H-imidazol-2-one], the IC50 was 0.473 nM in test [1] and 0.583 nM in test [2].

The values above are taken from US20240208939A1, “TREATMENT OF AUTOIMMUNE AND INFLAMMATORY DISORDERS WITH INHIBITORS OF BET FAMILY BDII BROMODOMAIN” (POSEIDON INNOVATION 1, INC., priority 2022, published 2024).
